Assay results as given in patent publication US20250276977A1, “TYK2 INHIBITORS AND USES THEREOF” (Alumis Inc., priority 2019, published 2025).

tested on: INFα induced pSTAT5; assay: INFα induced pSTAT5 in human PBMC; assay type: cell-based; conditions: Homo sapiens, PBMC, INFα 5000 units/ml, read-out: p-STAT5 IC50
Protocol: Fresh Human PBMCs were resuspended in RPMI 1640 medium with 10% FBS. Cells were seeded in a round bottom 96-well plate at the concentration of 200,000 cells/well. A 10-point dilution series of test compound (top dose 10 uM, 1:5 dilution) was added to the well using the liquid dispenser (Tecan D300e) and incubated for 1 hour at 37 C. Then human INFα recombinant protein (R&D Systems) was added to the well at the final concentration of 5000 units/ml and incubated for 15 minutes at 37 C. Cell lysates were prepared and analyzed by Phospho STAT3 (Tyr705) cellular kit (Cisbio) or Phospho STAT5 (Tyr693) Kit (Meso Scale Discovery) following manufacturer's protocol.
For calculation of the inhibition rate, the relative pSTAT signal of each well=pSTAT signal of each well−the average pSTAT signal of baseline.
The inhibition %=(the average pSTAT signal of INFα treatment wells—the relative of pSTAT signal in each compound containing well)/the average pSTAT signal of INFα treatment wells * 100%
The curve was plotted as the inhibition % (y-axis) vs. compounds concentration (x-axis) and was fitted with log(inhibitor) vs. normalized response—Variable slope by GraphPad Prism7.0.

SMILES	IC50
CNc1cc2nn3c(cnc13)C(=O)NCCOCc1cccc(OC)c1N2 [Example 9]	923 nM
CNc1cc2nc3c(cnn13)C(=O)N[C@H](C)COCc1cc(c(=O)n(C)n1)N2 [Example 57, (R,1^3E,1^4E,3^4E)-31,7-dimethyl-1^7-(methylamino)-3^1,3^6-dihydro-5-oxa-2,8-diaza-1(5,3)-pyrazolo[1,5-a]pyrimidina-3(5,3)-pyridazinacyclononaphane-36,9-dione]	21.2 nM
CNc1cc2nn3c(cnc13)C(=O)N[C@H](C)COCc1cc(c(=O)n(C)n1)N2 [Example 58, (15E,34E,7R)-31,7-dimethyl-18-(methylamino)-31,36-dihydro-5-oxa-2,8-diaza-1(6,3)-imidazo[1,2-b]pyridazina-3(5,3)-pyridazinacyclononaphane-36,9-dione]	7.7 nM
CNc1cc2nn3c(cnc13)C(=O)N[C@H](C)COCc1cc(F)c(OC)c(c1)N2 [Example 18, (7R,E)-3^5-fluoro-3^6-methoxy-7-methyl-1^8-(methylamino)-5-oxa-2,8-diaza-1(6,3)-imidazo[1,2-b]pyridazina-3(1, 3)-benzenacyclononaphan-9-one]	1.3 nM
CNc1cc2nc3c(cnn13)C(=O)N[C@H](C)COCc1cc(C#N)cc(c1)N2 [Example 44]	2 nM
CNc1cc2nn3c(cnc13)C(=O)N[C@H]1C[C@H](C1)OCc1ccc(OC)c(c1)N2 [Example 22]	10.7 nM
CNc1cc2nc3c(cnn13)C(=O)N[C@H](C)COCc1cc(cc(OC)c1)N2 [Example 45]	1.1 nM
CNc1cc2nc3c(cnn13)C(=O)N[C@H](C)COCc1ccc(OC)c(c1)N2 [Example 25]	2.1 nM
CNc1cc2nn3c(cnc13)C(=O)NCCOC(C)c1ccc(OC)c(c1)N2 (stereo not shown) [Example 13]	460 nM
CNc1cc2nn3c(cnc13)C(=O)N[C@H](C)COCc1cc(c(OC)cc1F)N2 [Example 17, (E)-3^4-fluoro-3^6-methoxy-7-methyl-1^8-(methylamino)-5-oxa-2,8-diaza-1(6,3)-imidazo[1,2-b]pyridazina-3(1,3)-benzenacyclononaphan-9-one]	1 nM
CNc1cc2nn3c(cnc13)C(=O)NC(C)CCn1ncc3cc(OC)c(cc31)N2 (stereo not shown) [Example 21, (E)-3^5-methoxy-6-methyl-1^8-(methylamino)-31H-2,7-diaza-1(6,3)-imidazo [1,2-b]pyridazina-3(6,1)-indazolacyclooctaphan-8-one]	102 nM
CNc1cc2nc3c(cnn13)C(=O)N[C@H](C)COCc1cc(c3cn(C)nc3c1)N2 [Example 53, (R, 1^3E, 1^4E, 3^4E)-3^2,7-dimethyl-1^7-(methylamino)-3^2H-5-oxa-2,8-diaza-1(5,3)-pyrazolo[1,5-a]pyrimidina-3(4,6)-indazolacyclononaphan-9-one]	9.4 nM
CNc1cc2nc3c(cnn13)C(=O)N[C@H](C)COCc1cc(F)c(OC)c(c1)N2 [Example 62]	3.8 nM
CNc1cc2nn3c(cnc13)C(=O)NCCCOc1cnc(OC)c(c1)N2 [Example 5]	151 nM
CNc1cc2nn3c(cnc13)C(=O)N[C@H](C)COCc1cnc(OC)c(c1)N2 [Example 14]	3 nM
CNc1cc2nn3c(cnc13)C(=O)N[C@@H](C)COCc1ccc(OC)c(c1)N2 [Example 11]	436 nM
CNc1cc2nc3c(cnn13)C(=O)N[C@H](C)COCc1cc(c3cnn(C)c3c1)N2 [Example 54, (R, 1^3E, 1^4E)-31,7-dimethyl-1^7-(methylamino)-31H-5-oxa-2,8-diaza-1(5,3)-pyrazolo[1,5-a]pyrimidina-3(4,6)-indazolacyclononaphan-9-one]	0.3 nM
CNc1cc2nc3c(cnn13)C(=O)N[C@H](C)COCc1cc(c(=O)n(-c3ccccn3)c1)N2 [Example 28]	8.3 nM

SMILES	IC50
CNc1cc2nc3c(cnn13)C(=O)N[C@H](C)COCc1cc(Br)c(OC)c(c1)N2 [Example 48]	16.7 nM
CNc1cc2nc3c(cnn13)C(=O)N[C@H](C)COCc1ccc(OC(F)(F)F)c(c1)N2 [Example 43]	3.8 nM
CNc1cc2nn3c(cnc13)C(=O)N[C@H](C)COCc1nc(C)cc(n1)N2 [Example 50, (7R,E)-3^6,7-dimethyl-1^8-(methylamino)-5-oxa-2,8-diaza-1(6,3)-imidazo[1,2-b]pyridazina-3(4,2)-pyrimidinacyclononaphan-9-one]	> 1000 nM
CNc1cc2nc3c(cnn13)C(=O)N[C@H](C)COCc1cc(c3nn(C)nc3c1)N2 [Example 35]	1.7 nM
CNc1cc2nc3c(cnn13)C(=O)NC(C)COCc1ccc(OC)c(c1)N2 (stereo not shown) [Example 12]	2.2 nM
CNc1cc2nn3c(cnc13)C(=O)N[C@H](C)COCc1ccc(OC)c(c1)N2 [Example 42]	13.6 nM
CNc1cc2nn3c(cnc13)C(=O)NC(C)COCc1cc(c(OC)cc1F)N2 (stereo not shown) [Example 16]	3.6 nM
CNc1cc2nc3c(cnn13)C(=O)N[C@H](C)COCc1cc(F)cc(c1)N2 [Example 46]	2.8 nM
CNc1cc2nc3c(cnn13)C(=O)N[C@H](C)COCc1cc(c(OC)cc1F)N2 [Example 52, (R, 1^3E, 1^4E)-3^4-fluoro-3^6-methoxy-7-methyl-1^7-(methylamino)-5-oxa-2,8-diaza-1(5,3)-pyrazolo[1,5-a]pyrimidina-3(1,3)-benzenacyclononaphan-9-one]	5.9 nM
CNc1cc2nc3c(cnn13)C(=O)N[C@H](C)COCc1cc(c3nccn3c1)N2 [Example 60, (R,1^3E,1^4E,3^7E)-7-methyl-1^7-(methylamino)-5-oxa-2,8-diaza-1(5,3)-pyrazolo[1,5-a]pyrimidina-3(8,6)-imidazo[1,2-a]pyridinacyclononaphan-9-one]	3.8 nM
CNc1cc2nc3c(cnn13)C(=O)N[C@H](C)COCc1cc(c3nn(C)cc3c1)N2 [Example 29]	3.1 nM
CNc1cc2nc3c(cnn13)C(=O)N[C@H](C)COCc1cc(nc(N3CCCC3=O)c1)N2 [Example 49]	1.7 nM
CNc1cc2nc3c(cnn13)C(=O)N[C@H](C)COCc1cc(c(OC)cn1)N2 [Example 27]	7.2 nM
CNC(=O)c1ccc2cc1Nc1cc(NC)n3ncc(c3n1)C(=O)N[C@H](C)COC2 [Example 41]	3.6 nM
CNc1cc2nc3c(cnn13)C(=O)N[C@H](C)COCc1cc(c3nnn(C)c3c1)N2 [Example 36]	0.7 nM
CNc1cc2nn3c(cnc13)C(=O)NCC(C)OCc1ccc(OC)c(c1)N2 (stereo not shown) [Example 8]	13.9 nM
CNc1cc2nc3c(cnn13)C(=O)N[C@H](C)COCc1cc(c3c(c1)nnn3C)N2 [Example 37]	90.1 nM

same assay, conditions: INFα 5000 units/ml, read-out: p-STAT5 IC50

SMILES	IC50
CNc1cc2nc3c(cnn13)C(=O)N[C@H](C)COCc1cnc(OC)c(c1)N2 [Example 26]	> 200 nM
CNc1cc2nc3c(cnn13)C(=O)N[C@@H](C)C(C)OCc1ccc(OC)c(c1)N2 (stereo partly shown) [Example 31]	> 200 nM
CNc1cc2nc3c(cnn13)C(=O)N[C@H](C)COCc1cnc(OC)c(c1)N2 [Example 47]	2.4 nM
CNc1cc2nc3c(cnn13)C(=O)N[C@H](C)C(C)OCc1ccc(OC)c(c1)N2 (single isomer, unassigned) [Example 32]	0.7 nM
CNc1cc2nc3c(cnn13)C(=O)N[C@H](C)C(C)OCc1ccc(OC)c(c1)N2 (single isomer, unassigned) [Example 33]	42.8 nM
